Positions of bridges follow the written chain, without caps; N, C: chain ends. Non-standard residues stand in square brackets, D forms with d. Residues, ends and D or L forms follow the SMILES beside them. *: point of attachment. NMeY = CN[C@@H](Cc1ccc(O)cc1)C(=O)O; Propionyl = CCC(=O)*

Six compounds from ChEMBL document CHEMBL6078709, “Discovery of Cyclic Lipopeptides, Octaminomycins C and D, by Engineering LysR Transcriptional Regulator of Streptomyces sp” (J Nat Prod, 2024) can be followed below.

What all share (assay type): functional, cell-based
For one experiment, the system named is SNU-638. The experiment in a line: Antiproliferative activity against human SNU-638 cells assessed as inhibition of cell growth incubated for 72 hrs by sulforhodamine B assay. The settings on record: SNU-638, 72 h. For orientation: In SRB staining, fixed cells bind dye roughly in proportion to their protein.
The test system of a further experiment is MDA-MB-231. In words: Antiproliferative activity against human MDA-MB-231 cells assessed as inhibition of cell growth incubated for 72 hrs by sulforhodamine B assay. Conditions: MDA-MB-231, 72 h.
A further experiment has as its system SK-HEP1. The experiment in a line: Antiproliferative activity against human SK-HEP1 cells assessed as inhibition of cell growth incubated for 72 hrs by sulforhodamine B assay. Conditions: SK-HEP1, 72 h.
In the next experiment the test system is A549. In words: Antiproliferative activity against human A549 cells assessed as inhibition of cell growth incubated for 72 hrs by sulforhodamine B assay. Conditions: A549, 72 h.
For the next experiment, the system named is HCT-116. The experiment in a line: Antiproliferative activity against human HCT-116 cells assessed as inhibition of cell growth incubated for 72 hrs by sulforhodamine B assay. The settings on record: HCT-116, 72 h.
The subject of a further experiment is HUVEC. The experiment in a line: Antiangiogenic activity in human HUVEC cells assessed as inhibition of VEGF-induced tube formation incubated for 6 hrs by matrigel based inverted microscopic analysis.

By IC50 is commonly meant the point on the concentration scale where inhibition reaches its midpoint. On to `CCC(=O)N[C@@H]1C(=O)N[C@@H](Cc2ccccc2)C(=O)N[C@H](CC(C)C)C(=O)N[C@@H](C(C)C)C(=O)N2CCC[C@H]2C(=O)N[C@@H](CC(C)C)C(=O)N(C)[C@@H](Cc2ccccc2)C(=O)N2CCC[C@H]2C(=O)O[C@@H]1C`, for which the IC50 in the experiment on SNU-638 is over 20 µM; with MDA-MB-231 it was 12 µM; in the experiment with SK-HEP1 it was 13.1 µM; with A549 it was 12.3 µM; with HCT-116, over 20 µM; in the experiment on HUVEC it was over 40 µM.

With `CCC(=O)N[C@@H]1C(=O)N[C@@H](Cc2ccccc2)C(=O)N[C@H](CC(C)C)C(=O)N[C@@H](C(C)C)C(=O)N2CCC[C@H]2C(=O)N[C@@H](CC(C)C)C(=O)N(C)[C@@H](Cc2ccc(O)cc2)C(=O)N2CCCC[C@H]2C(=O)O[C@@H]1C`, the IC50 in the experiment with SNU-638 was 17.2 µM; in the experiment with MDA-MB-231 it was over 20 µM; with SK-HEP1 it was 17.4 µM; with A549, 15.5 µM; in the experiment with HCT-116, over 20 µM; with HUVEC, over 40 µM.

Consider `CC(=O)N[C@@H]1C(=O)N[C@@H](Cc2ccccc2)C(=O)N[C@H](CC(C)C)C(=O)N[C@@H](C(C)C)C(=O)N2CCC[C@H]2C(=O)N[C@@H](CC(C)C)C(=O)N(C)[C@@H](Cc2ccc(O)cc2)C(=O)N2CCC[C@H]2C(=O)O[C@@H]1C` (Ac-TF[dL]VPL[NMeY]P; ester 1-C), for which the IC50 with SNU-638 is 16.8 µM; in the experiment with MDA-MB-231, over 20 µM; with SK-HEP1, 19 µM; in the experiment with A549, over 20 µM; in the experiment with HCT-116, over 20 µM; in the experiment with HUVEC it was 28 µM.

As for `CCC(=O)N[C@@H]1C(=O)N[C@@H](Cc2ccccc2)C(=O)N[C@H](CC(C)C)C(=O)N[C@@H](C(C)C)C(=O)N2CCC[C@H]2C(=O)N[C@@H](CC(C)C)C(=O)N(C)[C@@H](Cc2ccc(O)cc2)C(=O)N2CCC[C@H]2C(=O)O[C@@H]1C` (Propionyl-TF[dL]VPL[NMeY]P; ester 1-C), the IC50 with SNU-638 is over 20 µM; in the experiment with MDA-MB-231, over 20 µM; in the experiment on SK-HEP1, over 20 µM; in the experiment on A549, over 20 µM; in the experiment on HCT-116 it was over 20 µM; in the experiment on HUVEC, over 40 µM.

Consider `COc1cc([C@@H]2c3cc4c(cc3[C@@H](O[C@@H]3O[C@@H]5CO[C@@H](C)O[C@H]5[C@H](O)[C@H]3O)[C@H]3COC(=O)[C@H]23)OCO4)cc(OC)c1O` [ETOPOSIDE], for which the IC50 in the experiment with SNU-638 is 1.96 µM; in the experiment with MDA-MB-231, 2.43 µM; in the experiment with SK-HEP1, 3.78 µM; in the experiment with A549, 2.73 µM; in the experiment on HCT-116, 3.16 µM.

`CCN(CC)CCNC(=O)c1c(C)[nH]c(/C=C2\C(=O)Nc3ccc(F)cc32)c1C` [SUNITINIB]: the IC50 in the experiment with HUVEC is 3.5 µM.
